In patent US9464064B2, “HCV helicase inhibitors and methods of use thereof” (University of Kansas, priority 2011, dated 2016):

Tests used:
[1] = target: T1, NS3h_2a (Hepatitis C virus genotype 2a, UniProt Q99IB8); assay: RNA helicase assay (three-stranded RNA substrate); format: biochemical, hepatitis C virus genotype 2a(JFH1)
T1 construct: truncated C-terminally His-tagged NS3 proteins lacking the N-terminal protease, called NS3h; His-tag (C); made in house
Protocol: To act as antivirals in cells, it is also important for an HCV helicase inhibitor to inhibit the activity of the NS3h on RNA. […] As with protein specificity, no differences were uncovered regarding substrate specificity for any of the compounds tested. In other words, none of the compounds preferred to act either on DNA or RNA substrates.

[2] = target: T2, NS3h_1b (Hepatitis C virus genotype 1b, UniProt Q9WMX2); assay: ATPase assay without RNA; format: biochemical, hepatitis C virus genotype 1b(con1)
T2 construct: truncated C-terminally His-tagged NS3 proteins lacking the N-terminal protease, called NS3h; His-tag (C); made in house
T2 sequence (Q9WMX2 1192-1657): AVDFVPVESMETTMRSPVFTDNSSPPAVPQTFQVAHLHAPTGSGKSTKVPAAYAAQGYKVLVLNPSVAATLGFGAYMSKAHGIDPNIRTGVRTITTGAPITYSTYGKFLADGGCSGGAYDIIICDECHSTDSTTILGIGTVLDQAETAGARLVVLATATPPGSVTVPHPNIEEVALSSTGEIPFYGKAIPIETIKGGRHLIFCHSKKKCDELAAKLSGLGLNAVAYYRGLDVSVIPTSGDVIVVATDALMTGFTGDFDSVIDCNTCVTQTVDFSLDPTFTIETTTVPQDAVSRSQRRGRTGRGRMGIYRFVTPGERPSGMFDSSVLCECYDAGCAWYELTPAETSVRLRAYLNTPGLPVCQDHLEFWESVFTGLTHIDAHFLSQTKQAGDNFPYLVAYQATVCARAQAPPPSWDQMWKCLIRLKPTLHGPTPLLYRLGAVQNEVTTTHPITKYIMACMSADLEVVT
Protocol: A modified “malachite green” assay (Lanzetta, et al. (1979) Anal. Biochem. 100:95-97) was used to measure ATP hydrolysis. Fifty μL reactions contained 25 mM MOPS pH 6.5, 5 mM MgCl2, 2 mM ATP, 5 μg/mL BSA, 0.01% (v/v) TWEEN 20, 0.05 mM DTT, and poly(U) RNA (Saint Louis, Mo.) as indicated. Reactions were initiated by adding NS3h_1b(con1). Reactions were incubated for 15 minutes at 37° C. then stopped by mixing 40 μL of the reaction into 200 μL of the malachite green reagent (3 volumes 0.045% (w/v) malachite green, 1 volume 4.2% ammonium molybdate in 4N HCl, 0.05 volume of 20% TWEEN 20). […] Absorbance at 630 nm was proportional to the concentration of phosphate produced; free phosphate produced was measured against a standard curve.
A simple explanation for the ability of some of the primuline derivatives to inhibit helicase and protease with similar potency would be that the compounds acted by simply aggregating or denaturing the enzyme. To test for irreversible inhibition, NS3h was incubated with 100 μM of each compound, diluted and then assayed for its ability to unwind DNA under standard conditions. […] In a second test for a simple aggregation mechanism, each compound was tested for its ability to inhibit NS3-catalyzed ATP hydrolysis. ATP hydrolysis fuels the unwinding reaction and NS3 hydrolyzes ATP both in the presence and absence of DNA or RNA; nucleic acid stimulates NS3 catalyzed ATP hydrolysis about 50-fold. […] To test this hypothesis, ATPase assays were performed in the presence of various concentrations of each primuline derivative, under conditions similar to those used to monitor effects on DNA and RNA unwinding. Far more of each compound was needed to inhibit NS3-catalyzed ATP hydrolysis than was needed to inhibit the helicase activity, or, in some cases, NS3 protease activity (Table 11).

[3] = target: T3, NS3h_1b(con1) (Hepatitis C virus genotype 1b, UniProt Q9WMX2); assay: RNA-stimulated ATP hydrolysis, pH 7.5, HCV; format: biochemical, hepatitis C virus genotype 1b(con1)
T3 construct: truncated C-terminally His-tagged NS3 proteins lacking the N-terminal protease, called NS3h; His-tag (C); made in house
T3 sequence (Q9WMX2 1192-1657): as above
Protocol: To compare the effect of compounds on HCV NS3h_1b (con1) to NS3h_DV2, reactions were performed with 2 nM of either enzyme in 25 mM Tris pH 7.5, 1.25 mM MgCl2, 1.0 mM ATP, 10% DMSO, 5 μg/ml BSA, 0.01% (v/v) TWEEN 20, 0.05 mM DTT, and 10 μM poly(U) RNA at 37° C.
To further profile compound specificity, it was determined whether the compounds would inhibit homologous NS3h expressed by the Dengue virus (NS3h_DV2). […] The same assays were also repeated with HCV NS3h_1b(con1) for comparison. […] However, most of the primuline derivatives were relatively potent inhibitors of RNA-stimulated ATP hydrolysis catalyzed by the Dengue enzyme under the same conditions.

[4] = Absorbance and fluorescence properties; format: physicochemical; settings: for Absorbance ∈: extinction coefficient
From the text: Most of the compounds isolated from the two yellow dyes were fluorescent, absorbing light around 340 nm, and emitting near 420 nm. Their extinction coefficient and peak absorption wavelengths increased as the length of the benzothiazole oligomer increased. Their relative fluorescence decreased with the length of the benzothiazole chain. None of the compounds absorbed light near either the absorption or emission wavelengths of the Cy5-labeled MBHA substrate, or the wavelengths where the fluorescence of ethidium bromide stained DNA, SYBER green I-stained DNA, NS3-catalyzed peptide cleavage, or ATP hydrolysis were measured.
When directly compared with P4, the semi-synthetic primuline derivatives have a sharper absorbance peak centered near 360 nm, and they emit 3-15 times more light when excited at their absorbance maximum. […] Some compounds, like 12, stained both the cytoplasm and nucleus, but they also stained glass coverslips.

[5] = target: scNS4A-NS3 (Hepatitis C virus genotype 1b, UniProt Q9WMX2); assay: NS3 protease assay (ENZOLYTE 520), full-length; format: biochemical, hepatitis C virus genotype 1b(con1); design: other: average of two sets; There is also a His tag
scNS4A-NS3, sequence (Q9WMX2 1027-1657): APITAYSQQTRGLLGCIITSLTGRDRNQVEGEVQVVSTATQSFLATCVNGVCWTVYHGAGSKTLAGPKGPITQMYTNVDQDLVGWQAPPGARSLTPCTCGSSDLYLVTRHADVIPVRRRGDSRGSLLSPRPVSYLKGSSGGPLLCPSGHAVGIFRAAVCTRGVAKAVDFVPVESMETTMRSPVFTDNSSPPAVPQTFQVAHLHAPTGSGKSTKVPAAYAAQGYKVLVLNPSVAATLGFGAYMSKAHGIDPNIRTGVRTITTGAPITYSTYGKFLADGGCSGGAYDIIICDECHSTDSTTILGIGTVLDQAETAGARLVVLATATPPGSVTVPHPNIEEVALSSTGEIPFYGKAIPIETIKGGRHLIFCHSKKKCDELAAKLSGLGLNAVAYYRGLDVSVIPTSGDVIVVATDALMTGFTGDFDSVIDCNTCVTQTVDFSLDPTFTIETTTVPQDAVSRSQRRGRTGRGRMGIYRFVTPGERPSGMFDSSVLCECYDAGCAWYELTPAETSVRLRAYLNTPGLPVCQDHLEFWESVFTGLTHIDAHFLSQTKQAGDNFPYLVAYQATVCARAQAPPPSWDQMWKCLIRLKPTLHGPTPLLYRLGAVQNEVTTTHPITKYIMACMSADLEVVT
Protocol: All oligonucleotides were purchased from Integrated DNA Technologies (IDT, Coralville, Iowa). Primuline derivatives were synthesized and purified as described herein. Three different NS3 proteins were used in this study. Two were truncated C-terminally His-tagged NS3 proteins lacking the N-terminal protease, called NS3h, the third was a full-length NS3 with the portion of NS4A needed for protease activation fused to its N-terminus, called scNS4A-NS3 (Howe, et al. (1999) Protein Sci. 8:1332-41), and the fourth was a 23 kDa scNS4A-NS3 protease fragment lacking the helicase domains, called scNS4A-NS3p (Protein One, Rockville, Md.). NS3h was expressed from two different HCV strains. NS3h_1b(con1) was from the con1 strain of genotype 1b (GENBANK accession AB114136), and NS3h_2a(JFH1) was from the JFH1 strain of HCV genotype 2a (GENBANK accession AJ238799). […] His-tagged recombinant NS3h_1b(con1), NS3h_2a(JFH1), and scNS4A-NS3 (also from genotype 1b(con1)) were expressed, and purified as previously described (Frick, et al. (2010) supra; Lam, et al. (2003) J. Virol. 77:3950-3961). The scNS4A-NS3p (genotype 1b) was from Protein One. A plasmid expressing NS3h from dengue virus strain 2 (NS3h_DV2)(GENBANK accession 2BMF) is known in the art (Xu, et al. (2005) J. Virol. 79:10278-10288), and used to express and purify NS3h_DV2 (Belon, et al. (2010) supra)
All NS3 protease assays were carried out using the 5-Carboxyfluorescein-labeled substrate from the AnaSpec. ENZOLYTE 520 Protease Assay Kit (AnaSpec, San Jose, Calif.). Each assay contained 5 nM scNS4A-NS3 or 50 nM scNS4A-NS3p, […], 5% DMSO and 1× Anaspec HCV protease assay buffer. Assays were carried out in a total volume of 20 μl in black 384-well plates with fluorescence at 520 nm measured using a BMG FLUOstar Omega fluorescence spectrophotometer. Reactions were performed with eight concentrations of a two-fold dilution series of each compound (in duplicate) starting at 100 μM.

T1 sequence (Q99IB8 1196-1661): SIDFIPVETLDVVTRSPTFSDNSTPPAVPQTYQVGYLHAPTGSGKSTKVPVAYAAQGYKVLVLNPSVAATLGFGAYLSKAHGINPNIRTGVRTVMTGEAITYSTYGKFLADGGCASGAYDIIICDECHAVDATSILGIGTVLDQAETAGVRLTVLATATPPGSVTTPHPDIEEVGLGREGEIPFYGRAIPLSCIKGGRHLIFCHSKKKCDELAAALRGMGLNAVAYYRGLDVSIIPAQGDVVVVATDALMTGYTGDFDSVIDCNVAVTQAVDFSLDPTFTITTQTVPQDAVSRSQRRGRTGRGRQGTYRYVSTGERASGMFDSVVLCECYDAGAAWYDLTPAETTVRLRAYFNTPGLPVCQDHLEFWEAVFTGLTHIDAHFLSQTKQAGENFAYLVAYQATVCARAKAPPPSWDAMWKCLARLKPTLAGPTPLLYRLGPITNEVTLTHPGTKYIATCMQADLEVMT

Compound `Cc1ccc2nc(-c3ccc4nc(-c5ccc(NC(=O)c6cc(C(F)(F)F)cc(C(F)(F)F)c6)cc5)sc4c3)sc2c1S(=O)(=O)O` [Compound 24, 2′-(4-(3,5-bis(trifluoromethyl)benzamido)phenyl)-6-methyl-[2,6′-bibenzo[d]thiazole]-7-sulfonic acid] has an IC50 [1] of 14 ± 13 µM, an IC50 [2] of 141 ± 28 µM and an IC50 [3] greater than 200 µM. For the same compound, the “Absorbance λmax” value [4] was 355 nm, the “Fluorescence Emmax” value [4] was 497 nm and the “Fluorescence RFU@ 10 μM” value [4] was 121 RFU. For the same compound, the “Absorbance ∈” value [4] was 45,650 M^−1cm^−1 and the IC50 [5] was 23 ± 15 µM.
For `Cc1ccc2nc(-c3ccc4nc(-c5ccc(NC(=O)c6ccc(N)cc6)cc5)sc4c3)sc2c1S(=O)(=O)O` [Compound 6, 2′-(4-(4-aminobenzamido)phenyl)-6-methyl-[2,6′-bibenzo[d]thiazole]-7-sulfonic acid], the IC50 [1] was 7 ± 3 µM, the IC50 [2] was 194 ± 30 µM and the IC50 [3] was 140 ± 3 µM. For the same compound, the “Absorbance λmax” value [4] was 360 nm, the “Fluorescence Emmax” value [4] was 429 nm and the “Fluorescence RFU@ 10 μM” value [4] was 4 RFU. The “Absorbance ∈” value [4] was 36,600 M^−1cm^−1 and the IC50 [5] was 39 ± 17 µM.
